Results from patent publication US7563882B2, “Polynucleotides encoding antibodies that bind to the C35 polypeptide” (University of Rochester, priority 2002, dated 2009).

Columns and labels:
EBV-B target cells = assay: C35 peptide mediated T cell lysis of peptide pulsed EBV-B cells (Table 10); assay type: cell-based, human; settings: for % Lysis EBV-B cell Target: target pulsed with peptide
H16.A2 = assay: 51Cr release, CD8+ cells stimulated with K104-V113 peptides (Example 17); assay type: cell-based, human; settings: for Raw Chromium Values: target H16.A2
21NT = assay: as above; assay type: cell-based, human; settings: target 21NT, CD8+ cells of donor stimulated with peptide pulsed DCs; for Raw Chromium Values: Table 13; for Percentage of Target Cells Lysed: Table 14
21NT.A2 = assay: as above; assay type: cell-based, human; settings: target 21NT.A2
K562 = assay: as above; assay type: cell-based, human; settings: for Raw Chromium Values: target K562
PCl-13 = assay: as above; assay type: cell-based, human; settings: target PCl-13, CD8+ cells of donor stimulated with peptide pulsed DCs; for Raw Chromium Values: Table 13; for Percentage of Target Cells Lysed: Table 14
PCl-13 K104-V113-Ser = assay: as above; assay type: cell-based, human; settings: CD8+ cells of donor stimulated with peptide pulsed DCs; for Raw Chromium Values: Table 13, target PCl-13 K104-V113-Ser; for Percentage of Target Cells Lysed: Table 14, target Pcl-13 K104-V113-Ser
21NT.A2-Ser = assay: as above; assay type: cell-based, human; settings: target 21NT.A2-Ser, effector to target 30:1, CD8+ cells 12 days in IL-2 after fourth stimulation; for Raw Chromium Values: Table 15 (repeat); for Percentage of Target Cells Lysed: Table 16 (repeat)
Mel 1700 = assay: as above; assay type: cell-based, human; settings: target Mel 1700, effector to target 30:1, CD8+ cells 12 days in IL-2 after fourth stimulation; for Raw Chromium Values: Table 15 (repeat); for Percentage of Target Cells Lysed: Table 16 (repeat)
Mel 501 = assay: as above; assay type: cell-based, human; settings: target Mel 501, effector to target 30:1, CD8+ cells 12 days in IL-2 after fourth stimulation; for Raw Chromium Values: Table 15 (repeat); for Percentage of Target Cells Lysed: Table 16 (repeat)
Mel F002 = assay: as above; assay type: cell-based, human; settings: for Raw Chromium Values: Table 15 (repeat), target Mel F002, effector to target 30:1, CD8+ cells 12 days in IL-2 after fourth stimulation; for Percentage of Target Cells Lysed: Table 16 (repeat), effector to target 30:1, CD8+ cells 12 days in IL-2 after fourth stimulation
Mel 1359 = assay: as above; assay type: cell-based, human; settings: target Mel 1359, effector to target 30:1, CD8+ cells 12 days in IL-2 after fourth stimulation; for Raw Chromium Values: Table 15 (repeat); for Percentage of Target Cells Lysed: Table 16 (repeat)
B/C.N cells = assay: 51Cr release (CML), sensitization of B/C.N to lysis by tumor specific CTL; assay type: cell-based, mouse; settings: for sensitization of B/C.N cells to lysis by tumor-specific CTL: 4 hours; for peptide concentration to sensitize targets to lysis by CTL: B/C.N targets
[1] = T cell clones from donor with A3, A66, B8 and B41 HLA haplotypes
[2] = T cell clone #72, donor (A2, A3; B18, B44)
[3] = T cell clone #75, donor (A2, A3; B18, B44)
[4] = T cell clone #104, donor (A2, A3; B18, B44)
[5] = T cells from donor with A2, A3, B18, B44 HLA haplotypes raised against 9mer 22-30
[6] = Table 13, CD8+ cells of donor stimulated with peptide pulsed DCs
[7] = Table 14, CD8+ cells of donor stimulated with peptide pulsed DCs
[8] = Table 15 (repeat), effector to target 30:1, CD8+ cells 12 days in IL-2 after fourth stimulation
[9] = Table 16 (repeat), effector to target 30:1, CD8+ cells 12 days in IL-2 after fourth stimulation

Row | Substance | Raw Chromium Values (H16.A2; [6]) | Percentage of Target Cells Lysed (H16.A2; [7]) [%] | Raw Chromium Values (H16.A2; [8]) | Percentage of Target Cells Lysed (H16.A2; [9]) [%] | Raw Chromium Values (21NT) | Percentage of Target Cells Lysed (21NT) [%] | Raw Chromium Values (21NT.A2; [6]) | Percentage of Target Cells Lysed (21NT.A2; [7]) [%] | Raw Chromium Values (21NT.A2; [8]) | Percentage of Target Cells Lysed (21NT.A2; [9]) [%] | Raw Chromium Values (K562; [6]) | Percentage of Target Cells Lysed (K562; [7]) [%] | Raw Chromium Values (K562; [8]) | Percentage of Target Cells Lysed (K562; [9]) [%] | Raw Chromium Values (PCl-13) | Percentage of Target Cells Lysed (PCl-13) [%] | Raw Chromium Values (PCl-13 K104-V113-Ser) | Percentage of Target Cells Lysed (PCl-13 K104-V113-Ser) [%] | Raw Chromium Values (21NT.A2-Ser) | Percentage of Target Cells Lysed (21NT.A2-Ser) [%] | further results
1 | GGFPYEKDL [peptide 81-89] | – | – | – | – | – | – | – | – | – | – | – | – | – | – | – | – | – | – | – | – | lytic activity on EBV-B target cells pulsed with peptide (EBV-B target cells; [1]): 40.3%
2 | GVRIVVEYC [peptide 22-30] | – | – | – | – | – | – | – | – | – | – | – | – | – | – | – | – | – | – | – | – | % Lysis EBV-B cell Target (EBV-B target cells; [2]): 72.8%; % Lysis EBV-B cell Target (EBV-B target cells; [3]): 56.8%; % Lysis EBV-B cell Target (EBV-B target cells; [4]): 100.3%; lytic activity on EBV-B target cells pulsed with peptide (EBV-B target cells; [5]): very active
3 | IEINGQLVF [peptide 67-75] | – | – | – | – | – | – | – | – | – | – | – | – | – | – | – | – | – | – | – | – | lytic activity on EBV-B target cells pulsed with peptide (EBV-B target cells; [1]): 54.9%
4 | K104-V113-cys-cys: K104-V113 peptide fragment of C35 containing a cysteinylated cysteine at amino acid position 112 | 440 | 0.2 | 1024 | 5.8 | 171 | −0.1 | 1329 | 20.1 | 2337 | 19.1 | 287 | 0.9 | 1713 | 16.2 | 486 | −1.7 | 1772 | 35.3 | 4474 | 51.9 | Raw Chromium Values (Mel 1700): 1857; Percentage of Target Cells Lysed (Mel 1700): 7.2%; Raw Chromium Values (Mel 501): 4474; Percentage of Target Cells Lysed (Mel 501): 21.2%; Raw Chromium Values (Mel F002): 1713; Percentage of Target Cells Lysed (Mel F002): 11.2%; Raw Chromium Values (Mel 1359): 2299; Percentage of Target Cells Lysed (Mel 1359): 2.5%
5 | KITNSRPPAV (synthetic analog of human C35 epitope) [K104-V113-Ala] | 479 | 0.9 | 829 | 2.0 | 155 | −0.7 | 763 | 7.3 | 1365 | 6.4 | 246 | −0.9 | 815 | 2.9 | 468 | −2.2 | 746 | 6.0 | 2423 | 22.5 | Raw Chromium Values (Mel 1700): 1543; Percentage of Target Cells Lysed (Mel 1700): 2.4%; Raw Chromium Values (Mel 501): 2423; Percentage of Target Cells Lysed (Mel 501): 11.1%; Raw Chromium Values (Mel F002): 815; Percentage of Target Cells Lysed (Mel F002): 7.6%; Raw Chromium Values (Mel 1359): 3050; Percentage of Target Cells Lysed (Mel 1359): 9.9%
6 | KITNSRPPCV [K104-V113] | 483 | 0.9 | 948 | 4.3 | 137 | −1.5 | 1429 | 22.4 | 2753 | 24.6 | 311 | 2.0 | 1156 | 8.0 | 804 | 7.6 | 1403 | 24.8 | 3729 | 41.5 | Raw Chromium Values (Mel 1700): 1964; Percentage of Target Cells Lysed (Mel 1700): 8.9%; Raw Chromium Values (Mel 501): 3729; Percentage of Target Cells Lysed (Mel 501): 36.0%; Raw Chromium Values (Mel F002): 1156; Percentage of Target Cells Lysed (Mel F002): 15.7%; Raw Chromium Values (Mel 1359): 2758; Percentage of Target Cells Lysed (Mel 1359): 7.0%
7 | KITNSRPPSV (synthetic analog of human C35 epitope) [K104-V113-Ser] | 584 | 2.6 | 1018 | 5.6 | 185 | 0.5 | 3228 | 63.2 | 4957 | 53.4 | 323 | 2.5 | 974 | 5.3 | 581 | 1.1 | 2588 | 58.7 | 4762 | 56.0 | Raw Chromium Values (Mel 1700): 2951; Percentage of Target Cells Lysed (Mel 1700): 24.1%; Raw Chromium Values (Mel 501): 4762; Percentage of Target Cells Lysed (Mel 501): 45.3%; Raw Chromium Values (Mel F002): 974; Percentage of Target Cells Lysed (Mel F002): 15.1%; Raw Chromium Values (Mel 1359): 2357; Percentage of Target Cells Lysed (Mel 1359): 3.0%
8 | L345-54 (I54): peptide of ribosomal protein L3, positions 45-54 with Ile 54 (AFLGYKAGMI) | – | – | – | – | – | – | – | – | – | – | – | – | – | – | – | – | – | – | – | – | sensitization of B/C.N cells to lysis by tumor-specific CTL (B/C.N cells): did not
9 | L348-56 (I54): peptide of ribosomal protein L3, positions 48-56 with Ile 54; target epitope of tumor-specific CTL (GYKAGMIHI) | – | – | – | – | – | – | – | – | – | – | – | – | – | – | – | – | – | – | – | – | sensitization of B/C.N cells to lysis by tumor-specific CTL (B/C.N cells): sensitized B/C.N to lysis; peptide concentration to sensitize targets to lysis by CTL (B/C.N cells): ≤ 0.01 µM
10 | L348-56 (T54): wild type ribosomal protein L3 peptide 48-56 with Thr 54 (GYKAGMTHI) [reference compound] | – | – | – | – | – | – | – | – | – | – | – | – | – | – | – | – | – | – | – | – | sensitization of B/C.N cells to lysis by tumor-specific CTL (B/C.N cells): did not; peptide concentration to sensitize targets to lysis by CTL (B/C.N cells): > 100 µM
11 | QLVFSKLENGGFPYE [peptide 72-86] | – | – | – | – | – | – | – | – | – | – | – | – | – | – | – | – | – | – | – | – | % Lysis EBV-B cell Target (EBV-B target cells; T cell clone #46, donor (A2, A3; B18, B44)): 78.5%; lytic activity on EBV-B cells pulsed with peptide (EBV-B target cells; T cell clones from donor with A2, A3, B18, B44 HLA haplotypes): 78.5%
12 | peptide 17-31: 15mer corresponding to amino acids 17-31 of C35 (SEQ ID NO:2) (VEPGSGVRIVVEYCE; listed as Homo sapiens) | – | – | – | – | – | – | – | – | – | – | – | – | – | – | – | – | – | – | – | – | % Lysis EBV-B cell Target (EBV-B target cells; [2]): 0.5%; % Lysis EBV-B cell Target (EBV-B target cells; [3]): 1.2%; % Lysis EBV-B cell Target (EBV-B target cells; [4]): 6.4%; lytic activity on EBV-B target cells pulsed with peptide (EBV-B target cells; [5]): minimal lysis
